Assays:
[1] = tested on: cartilage tissue (articular cartilage, distal end of a femur); assay: Immersion of a distal end of a femur of a normal mouse in a cartilage tissue visualization reagent solution, ex vivo fluorescence microscopy; conditions: room temperature, 1 hour, GFP filter; for staining of cartilage (fluorescence signal, FIG. 2): 0.1 mM solution in saline; for staining of cartilage (fluorescence signal, FIG. 1): 0.1 mM solution in saline containing 25% ethanol
Procedure: Two normal C57B6/J strain mouse (8 week old, female) were prepared. The animals were euthanized by ether deep anesthesia and a distal end of a femur was excised. The sample was immersed in 100 μL of a 0.1 mM lysine oligomer derivative solution at room temperature for 1 hour. After 1 hour, the sample was washed twice with buffered saline. This was embedded in 4% CMC compound, frozen in hexane/liquid nitrogen, and cut into thin slices with a thickness of 7 μm using a tungsten carbide blade TC-65 (Leica) for a hard tissue slice and Cryofilm (Leica) in a cryostat without decalcification. The slice was thawed at room temperature for 10 sec, immersed in 100% ethanol for about 30 sec, stored in 4% paraformaldehyde (PFA) for a while, washed with tap water, and then subjected to fluorescence microscopy. An optical filer was a GFP filter. A lysine peptide was labeled with a fluorescence agent NBD, so that its signal was detected.
Here, a solvent of the solution of a lysine oligomer derivative was saline containing 25% ethanol. FIG. 1 is an enlarged image of an articular cartilage area in a sagittal plane of a knee joint in a distal end of a femur. The broken line indicates a tide-mark which is a boundary plane between a cartilage and a calcified cartilage layer.
Here, a solvent of the solution of a lysine oligomer derivative was saline. FIG. 2 is an enlarged image of an articular cartilage area in a sagittal plane of a knee joint in a distal end of a femur. […] For any of compounds 26 to 29, staining of a cartilage tissue was observed. However, staining of compound 26 containing only one lysine unit was slight. […] The white (green in a color photo) regions in the cartilage layer correspond to a part stained by a compound. Some of the circular regions (blue in a color photo) correspond to nuclear stain parts by Hoechst, which were also observed in the calcified layer.

SMILES | staining of cartilage (fluorescence signal, FIG. 2) [1] | melting point [°C] | staining of cartilage (fluorescence signal, FIG. 1) [1]
NCCCC[C@H](N)C(=O)NCCNc1ccc([N+](=O)[O-])c2nonc12 [Compound 26] | slight | 151.4 to 153.9 | 
NCCCC[C@H](N)C(=O)NCCCC[C@H](N)C(=O)NCCCC[C@H](N)C(=O)NCCNc1ccc([N+](=O)[O-])c2nonc12 [Compound 27] | adequately stained | 183.3 to 184.7 | Staining was observed in the cartilage tissue
NCCCC[C@H](N)C(=O)NCCCC[C@H](N)C(=O)NCCCC[C@H](N)C(=O)NCCCC[C@H](N)C(=O)NCCNc1ccc([N+](=O)[O-])c2nonc12 [Compound 28] | further strongly stained |  | 
NCCCC[C@H](N)C(=O)NCCCC[C@H](N)C(=O)NCCCC[C@H](N)C(=O)NCCCC[C@H](N)C(=O)NCCCC[C@H](N)C(=O)NCCNc1ccc([N+](=O)[O-])c2nonc12 [Compound 29] | further strongly stained |  | 
N=C(N)NCCNc1c(I)cc(C(=O)NCCCC[C@H](NC(=O)c2cc(I)c(NCCNC(=N)N)c(I)c2)C(=O)NCCCC[C@H](NC(=O)c2cc(I)c(NCCNC(=N)N)c(I)c2)C(=O)NCCCC[C@H](NC(=O)c2cc(I)c(NCCNC(=N)N)c(I)c2)C(=O)NCCNc2ccc([N+](=O)[O-])c3nonc23)cc1I [Compound 42] |  | 189.4 to 191.5 | Staining was observed in the cartilage tissue
NCCNc1c(I)cc(C(=O)NCCCC[C@H](NC(=O)c2cc(I)c(NCCN)c(I)c2)C(=O)NCCCC[C@H](NC(=O)c2cc(I)c(NCCN)c(I)c2)C(=O)NCCCC[C@H](NC(=O)c2cc(I)c(NCCN)c(I)c2)C(=O)NCCNc2ccc([N+](=O)[O-])c3nonc23)cc1I [Compound 43] |  | 192.9 to 195.7 | staining was confined to the surface tissue

Source: patent US20150080551A1, “LYSINE OLIGOMER DERIVATIVE AND CARTILAGE TISSUE MARKER MADE THEREOF” (NATIONAL UNIVERSITY CORPORATION OKAYAMA UNIVERSITY, priority 2012, published 2015)
